Drawing on a melting point compilation (Tetko et al.), this text covers melting point for 112 compounds.

By melting point is commonly meant the temperature, or range, at which the solid turns liquid.

`CC(NC(=O)CCCCN1C(=O)c2ccccc2C1=O)[P+]([O-])(Oc1ccccc1)Oc1ccccc1` (configuration not stated) returned a melting point of 144 °C.
`c1ccc(-c2ncoc2-c2ccccc2)cc1` registered a melting point of 44 °C.
`Cc1ccc(Cc2c(N)n[nH]c2N)cc1`: the melting point was 173 to 175 °C.
With `CC1(C)OC(=O)c2ccccc21`, the melting point was found to be 70 °C.
`O=C(S)c1ccccc1` had a melting point of 24 °C.
In turn, `CN(C)c1ccc(NC(N)=S)cc1` returned a melting point of 190 °C.
Take `COC[C@H]1CCCN1C(=S)SCC(=O)c1ccc(Br)cc1`: the melting point amounted to 89.5 °C.
Consider `COc1ccc(C(=O)c2ccc(OC)cc2)cc1`, for which the melting point was 144 °C.
With `Oc1ccc(Cl)c(F)c1`, the melting point turned out to be 52 °C.
`O=C(O)C(O)(O)C(O)(O)C(=O)O` came in with a melting point of 114 °C.
The compound `O=C(c1ccccc1)C(Br)c1ccccc1` (configuration not stated) came in with a melting point of 53 to 58 °C.
`Cn1c2ccccc2n2c(=O)c3ccncc3c(C#N)c12` showed a melting point of 296 °C.
The compound `NC(Cc1cc(I)c(Oc2ccc(O)c(I)c2)c(I)c1)C(=O)O` (configuration not stated) had a melting point of 236 °C.
Compound `O=C(O)c1ccc(-c2ccccc2)s1` gave a melting point of 188 to 192 °C.
With `CC(C)c1cccc(O)c1O`, the melting point was determined as 47 °C.
`CC(C)(C)OC(=O)N1CCN(Cc2ccc(C(=O)O)cc2)CC1`: the melting point was in the range of 196 to 204 °C.
In the case of `Nc1nc(O)nc2c1cnn2CCO`, the melting point lay in the range of 305 to 310 °C.
As for `Cc1cc(C=O)nn1C`, the figure is 56 to 57 °C; as for `Cc1c(C)c(C)c2c(c1C)CC2=O`, 160 to 161 °C; as for `CCCCC=CC=CC=CCCCCCCCC(=O)O`, 71.5 °C.
As for `CCOCCOC(=O)C=Cc1ccc(OC)cc1`, the figure is -25 °C.
`N#CN=CNc1ccccc1` yielded a melting point of 138 to 141 °C.
As for `Cc1cccc2c1C(=O)OC2O` (configuration not stated), the figure is 117 °C.
On to `CC(=O)Nc1ccccc1C(=O)c1ccccc1`, for which the melting point stood at 88 °C.
For the compound `CC12CCC(/C(=N/O)C/C1=N\O)C2(C)C` (configuration not stated), the melting point amounted to 209 °C.
As to `O=C(c1cccc2ccccc12)C(Br)c1ccccc1` (configuration not stated), the melting point is 64 °C.
The figure for `CCNCC` is -50 °C; for `CCc1c(C)cc(C)cc1C` it is -16 °C.
In turn, `CC(C)(C)[C@@H]1NC(=O)CNC1=O` showed a melting point of 300 °C.
`O=C(c1ccccc1)c1ccc(F)c(C(F)(F)F)c1`: the melting point was 46 °C.
With `CC(=O)Nc1ccc(C#N)cc1C(F)(F)F`, the melting point is 169 to 171 °C.
As for `c1ccc(-c2nsc(N3CCCNCC3)n2)cc1`, the melting point lay in the range of 82 to 83 °C.
As for `FC1(F)C(F)(F)C(F)(F)C2(F)C(F)(C1(F)F)C(F)(F)C(F)(F)C1(F)C(F)(F)C(F)(F)C(F)(F)C(F)(F)C12F` (configuration not stated), the figure is -20 °C; as for `C#CC1(O)CCC2(C)C(CCC3C2CCC2(C)C3CCC23OCCO3)C1` (configuration not stated), 203 to 209 °C.
Compound `CC(=O)Nc1cccc(C(C)=O)c1` registered a melting point of 127 °C.
Regarding `Oc1cccc(N2CCNCC2)c1`, the melting point is 207 °C.
`O=C(c1ccc(F)cc1)C1CC1` showed a melting point of -15 °C.
In turn, `O=CC(Cl)C=O` displayed a melting point of 140 to 145 °C.
`Cn1nc(C(F)(F)F)cc1-c1ccc(S(=O)(=O)Cl)s1` showed a melting point of 68 to 70 °C.
`COc1cccc(Br)c1O` yielded a melting point of 64 °C.
The figure for `Cc1oc(-c2ccccc2)cc1C(=O)Cl` is 85 to 88 °C; for `CC(=O)c1ccc(F)c(Cl)c1` it is 42 to 44 °C; for `O=C1C(Cl)=C(Cl)C(Cl)=C(Cl)C1(Cl)Cl` it is 46 to 49 °C.
The compound `Cc1ccc([N+](=O)[O-])c(Cl)c1` gave a melting point of 24 °C.
Compound `NC1CCC(CC2CCC(N)CC2)CC1` (configuration not stated) had a melting point of 64.7 °C.
Compound `Cc1n[nH]c(S)n1` yielded a melting point of 275 to 277 °C.
For the compound `S=C=Nc1ccc(-n2cccn2)cc1`, the melting point is 97 to 99 °C.
Compound `CC=CC(C)(C)C` returned a melting point of -115 °C.
Consider `CC1(C)N=C(N)C(C)(C)N1O`, for which the melting point was in the range of 225 to 228 °C.
Compound `CC(C1=CCC(C(=O)O)C(C)(C)O1)(c1ccccc1)c1ccccc1` (configuration not stated) returned a melting point of 145 °C.
As for `CCC(N)C(O)c1ccccc1` (configuration not stated), the figure is 79.5 °C; as for `O=C=Nc1ccc2c(c1)OCCOCCOCCOCCOCCO2`, 61 to 63 °C.
The compound `CCNc1ccc2c(C(F)(F)F)cc(=O)oc2c1` gave a melting point of 158 to 159 °C.
With `O=C1CCc2ccccc2C1`, the melting point is 18 °C.
Regarding `N#Cc1ccc(OCc2ccc3nonc3c2)cc1`, the melting point was in the range of 160 to 162 °C.
Compound `O=c1cc(-c2ccccc2)oc2ccc(Cl)cc12` returned a melting point of 183 to 187 °C.
Regarding `O=Cc1cccn1-c1ccc(C(F)(F)F)cc1`, the melting point lay in the range of 97 to 98 °C.
`O=Cc1cc([N+](=O)[O-])ccc1N1CCCC1`: the melting point lay in the range of 136 to 138 °C.
The compound `O=C(Cc1ccccc1[N+](=O)[O-])c1ccccc1[N+](=O)[O-]` returned a melting point of 166 °C.
`O=C(O)c1c(F)c(F)c(F)c(F)c1C(=O)O` showed a melting point of 163 °C.
In turn, `C=C1C(=O)C23C(OC(C)=O)CC4C5(C)CCCC4(C(OC(C)=O)OC5)C2C(OC(C)=O)CC1C3OC(C)=O` (configuration not stated) displayed a melting point of 224 °C.
The compound `O=C1COc2ccc(S(=O)(=O)Cl)cc2N1` showed a melting point of 178 °C.
Turning to `CC(C)(C)OC(=O)N1CCCC(=O)C1`, the melting point came to 38 °C.
For the compound `NC(=NO)c1cnccc1C(F)(F)F`, the melting point fell in the range of 183 to 185 °C.
As to `Cc1ccc(C(=O)/C=C/c2ccc(-c3cccc([N+](=O)[O-])c3)o2)o1`, the melting point amounted to 160 °C.
Consider `OC1COC(Oc2ccc3cc(Br)ccc3c2)C(O)C1O` (configuration not stated), for which the melting point was in the range of 190 to 196 °C.
The compound `Nc1ccc(Cl)cc1Br` came in with a melting point of 66 °C.
Compound `O=[N+]([O-])c1c(Cl)c(Cl)cc(Cl)c1Cl` showed a melting point of 100 °C.
As for `CSc1sc(Cl)c2c1C(=O)CC(C)(C)C2`, the figure is 126 to 129 °C; as for `CC(CC(C(N)=O)(c1ccccc1)c1ccccc1)N(C)C` (configuration not stated), 137 °C.
The compound `O=C1OC(C(Cl)(Cl)Cl)Cc2ccccc21` (configuration not stated) came in with a melting point of 119 °C.
In turn, `CN(C)c1ccc(N=O)cc1` yielded a melting point of 92.5 °C.
The compound `O=CC(Cl)=C(Cl)C(=O)O` had a melting point of 127 °C.
`CCOC(=O)C(Cc1ccccc1)(Cc1ccccc1)C(C)=O`: the melting point was determined as 58 °C.
For `Cc1ccc(N)c(O)c1`, the melting point was found to be 157 °C.
As for `CCC(=O)Nc1ccc(Cl)c(Cl)c1`, the melting point is 92 °C.
The compound `O=C(O)c1cccc(-n2ccnc2)c1` returned a melting point of 194 to 199 °C.
As for `CCCCN1C(=O)c2ccccc2C1=O`, the figure is 34 °C; as for `O=CNC1CCCCC1`, 39.5 °C; as for `Clc1cccc2c(Cl)cccc12`, 107 °C.
`CCOc1cc(NC(=O)c2ccccc2)c(OCC)cc1N`: the melting point lay within 98 to 100 °C.
In turn, `O=C1C(Cl)=C(Cl)C(=O)c2ccccc21` showed a melting point of 195 °C.
`O=C(c1ccccc1)c1ccccc1N=Nc1ccccc1C(=O)c1ccccc1` registered a melting point of 205 °C.
The figure for `CC12CCCCC1(C)C1CCC3(C)C(O)CCC3(C)C1CC2` (configuration not stated) is 167 °C.
The figure for `CC(=O)SCC(C)C(=O)N1CCCC1C(=O)O` (configuration not stated) is 76 to 82 °C.
The figure for `COc1ccc(C(C)=O)cc1O` is 89.5 °C; for `[O-][N+](=Nc1ccccc1)c1ccc(N=Nc2ccccc2)cc1` it is 130 to 131 °C; for `NSCc1cc2ccccc2oc1=O` it is 255 °C.
`O=C1c2ccccc2C(=O)C1(CN1CCOCC1)c1ccccc1` gave a melting point of 88 °C.
Compound `CC(C)(C)OC(=O)NC(COC1CCCCO1)CS(=O)(=O)c1ccccc1` (configuration not stated) had a melting point of 100 to 104 °C.
The compound `CCOC(=O)Cn1c(=O)sc2cccc(Cl)c21` yielded a melting point of 79.2 °C.
For `Cc1ccc(S(=O)(=O)n2cccc2)cc1`, the melting point amounted to 101 °C.
As for `O=C(NCc1ccc(Cl)cc1)c1cc([N+](=O)[O-])cc([N+](=O)[O-])c1`, the figure is 200 to 202 °C.
In the case of `CC1CCC(=O)N1` (configuration not stated), the melting point was 43 °C.
Compound `O=[N+]([O-])c1cnc2ccccc2c1O` registered a melting point above 345 °C.
The compound `COc1cc(N)ccc1Cl` returned a melting point of 80 °C.
For `C=COCC(CC)CCCC` (configuration not stated), the melting point was -100 °C.
With `Nc1ncccc1OCc1ccccc1`, the melting point was in the range of 94 to 98 °C.
Regarding `O=C(NC(Cc1ccc2ccccc2c1)C(=O)O)OCC1c2ccccc2-c2ccccc21` (configuration not stated), the melting point turned out to be 191 °C.
Take `O=CCC=O`: the melting point came out at 72 °C.
As for `COc1cc([N+](=O)[O-])c2ncccc2c1`, the figure is 159 °C.
On to `CC(C)(C)c1ccc2c(c1)-c1cc(C(C)(C)C)ccc1C2`, for which the melting point stood at 81 °C.
In the case of `O=C1C(c2ccccc2)=[N+]([O-])c2ccccc21`, the melting point was found to be 186 °C.
The figure for `OCc1ccc(-c2ccccn2)s1` is 86 to 88 °C; for `CCOC(=O)N1COCc2c1ccc1cc3ccc(NC)c(CO)c3nc21` it is 146 °C; for `CC(=O)Nc1c(C)cc(Cl)cc1Cl` it is 174 to 176 °C.
The figure for `O=C(OCC(O)CO)c1ccccc1Nc1ccnc2c(C(F)(F)F)cccc12` (configuration not stated) is 180 °C; for `Cc1cc([N+](=O)[O-])c(Cl)c([N+](=O)[O-])c1` it is 114 to 116 °C.
In the case of `NS(=O)(=O)c1cc2c(cc1Cl)NC(C1CC3C=CC1C3)NS2(=O)=O` (configuration not stated), the melting point is 234 °C.
In turn, `CN(C)C(=O)NC1CC2CC1C1CCCC21` (configuration not stated) returned a melting point of 177 °C.
The figure for `CCCOc1ccccc1OCC(O)CO` (configuration not stated) is 70 °C.
The figure for `O=C(OCC1CC1)c1cnc(Cl)nc1C(F)(F)F` is 108 to 110 °C.
